According to the supplement of paper PMC10307832:

Assays:
Assay in all cases: relative viability (nuclei count vs DMSO), 5 days (fraction); higher = more cells survive
[1] = compound: CN1CCC(CNc2ccc3ncc(-c4cccc(OC(F)(F)F)c4)n3n2)CC1 [SGI-1776] + O=C(CCCCCCC(=O)Nc1ccccc1)NO [Vorinostat] (partner 1 µM)
Procedure, shortened: (§1)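 After 5 days of treatment, lung cancer cells in 1536-well plates were fixed and stained in a single step (final 0.05% Triton X-100, 1% formaldehyde, 1 ug/ml Hoechst) and their nuclei counted on 4× images. Treatment had been applied by pin tool the day after seeding as one drug alone or as a fixed anchor-drug dose with five library-drug doses (not always all listed) in √10 steps. Relative viability is the nuclei count of treated wells divided by that of vehicle wells, and values are medians of duplicate plates.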

[2] = compound: Nc1ccccc1NC(=O)c1ccc(CNC(=O)OCc2cccnc2)cc1 [Entinostat] + C[C@]1(O)C[C@@H](c2nc(-c3ccc4ccc(-c5ccccc5)nc4c3)c3c(N)nccn32)C1 [Linsitinib] (partner 1 µM)
Procedure, shortened: as §1

[3] = compound: CN1CCC(CNc2ccc3ncc(-c4cccc(OC(F)(F)F)c4)n3n2)CC1 [SGI-1776] + C[C@]1(O)C[C@@H](c2nc(-c3ccc4ccc(-c5ccccc5)nc4c3)c3c(N)nccn32)C1 [Linsitinib] (partner 1 µM)
Procedure, shortened: as §1

[4] = compound: CN1CCC(CNc2ccc3ncc(-c4cccc(OC(F)(F)F)c4)n3n2)CC1 [SGI-1776] + CC(=O)c1c(C)c2cnc(Nc3ccc(N4CCNCC4)cn3)nc2n(C2CCCC2)c1=O [Palbociclib] (partner 0.5 µM)
Procedure, shortened: as §1

Row | Cell Line | relative viability ([1]; first compound 0.08 µM) | relative viability ([1]; first compound 0.8 µM) | relative viability ([1]; first compound 2.53 µM) | relative viability ([1]; first compound 8 µM) | relative viability ([2]; first compound 0.02 µM) | relative viability ([2]; first compound 0.06325 µM) | relative viability ([2]; first compound 0.2 µM) | relative viability ([2]; first compound 0.6325 µM) | relative viability ([2]; first compound 2 µM) | relative viability ([3]; first compound 0.08 µM) | relative viability ([3]; first compound 0.8 µM) | relative viability ([3]; first compound 2.53 µM) | relative viability ([3]; first compound 8 µM) | relative viability ([4]; first compound 0.08 µM) | relative viability ([4]; first compound 0.8 µM) | relative viability ([4]; first compound 2.53 µM) | relative viability ([4]; first compound 8 µM)
1 | NCI-H358 | 0.686 | 1.06 | 0.634 | 0.625 | 0.699 | 0.905 | 0.934 | 0.503 | 0.238 | 0.725 | 0.756 | 0.758 | 0.388 | 0.112 | 0.141 | 0.129 | 0.113
2 | H3255 | 0.904 | 0.919 | 0.815 | 0.718 | 0.892 | 0.87 | 0.765 | 0.507 | 0.304 | 1.1 | 1.04 | 0.921 | 0.792 | 0.363 | 0.34 | 0.328 | 0.311
3 | NCI-H23 | 0.639 | 0.758 | 0.602 | 0.533 | 0.723 | 0.567 | 0.782 | 0.531 | 0.399 | 0.724 | 0.541 | 0.517 | 0.411 | 0.507 | 0.574 | 0.421 | 0.482
4 | CAL-12T | 0.794 | 0.876 | 0.723 | 0.699 | 0.838 | 0.815 | 0.814 | 0.909 | 0.392 | 0.916 | 0.821 | 0.821 | 0.756 | 0.425 | 0.518 | 0.641 | 0.418
5 | A-427 | 0.861 | 0.9 | 0.882 | 0.815 | 1.16 | 1.15 | 1.01 | 1.07 | 0.825 | 1.13 | 1.19 | 1.16 | 1.07 | 0.567 | 0.541 | 0.547 | 0.456
6 | HARA | 0.497 | 0.515 | 0.559 | 0.438 | 0.917 | 0.938 | 0.938 | 0.793 | 0.577 | 1.11 | 0.921 | 0.909 | 0.945 | 0.308 | 0.289 | 0.261 | 0.264
7 | NCI-H1793 | 0.843 | 1.15 | 0.768 | 0.638 | 0.964 | 0.841 | 0.834 | 0.698 | 0.364 | 1.06 | 0.895 | 1 | 0.794 | 0.353 | 0.335 | 0.311 | 0.298
8 | NCI-H2023 | 0.795 | 0.8 | 0.713 | 0.463 | 0.671 | 0.778 | 0.48 | 0.191 | 0.133 | 0.727 | 0.77 | 0.666 | 0.444 | 0.38 | 0.396 | 0.354 | 0.266
